Experimental data reported in EP4389749A1, “SUBSTITUTED 3,7-DIHYDRO-1H-PURINE-2,6-DIONES AND USE THEREOF” (invIOs GmbH, priority 2022, dated 2024).

Tests used:
CD4+ T-cells = experiment: Immunostimulation assay with anti-CD3/28 stimulated T-cells, CD69 expression by flow cytometry; assay type: cell-based, human; conditions: T-cell; purified human CD4+ and CD8+ T-cells, 1 µg/ml anti-CD3, 1 µg/ml anti-CD28, 16 hours, surface FACS; read-out: EC50 CD4+
Method: (§1) Selection of potent compounds based on structure activity relation (SAR) using human, anti-CD3/28 stimulated T-cells. Enhanced activation of stimulated T-cells is measured by CD69 expression by flowcytometry.
(§2) White blood cell enriched buffy coats were ordered from the Austrian red cross, diluted with PBS to a total volume of 480 ml, 30 ml transferred to 50ml falcons and 11 ml lymphoprep added. Cell suspensions were centrifuged for 20 min at 2200 rpm and the PBMC containing layer transferred, three times washed with PBS and counted.
(§3) 10^7 PBMCs were magnetically labeled with CD4 and CD8 microbeads according to manufacturer's instructions and separated using autoMACS device. For dose response experiments with purified CD4+CD8+ T-cells 80000 cells were seeded per 96-well flat bottom cell culture dish.
(§4) 10 mM compounds of the invention stocks were further diluted using DMSO and equal amounts transferred to T-cell containing 96-wells. Final concentrations tested were: 30 µM, 10 µM, 3 µM, 1 µM, 0.3 µM, 0.1 µM, 0.03 µM, 0.01 µM, 0.003 µM and 0.001 µM.
(§5) For the stimulation assays 80.000 purified CD4+ and CD8+ T-cells were seeded per 96-well and incubated with 1 µg/ml anti-CD3, 1 µg/ml anti-CD28 and compounds of the invention ranging from 0.001 µM to 30 µM. DMSO only wells served as control to determine minimal T-cell activation upon stimulation and CD3/28 coupled Dynabeads were used to determine the maximal activation of T-cells. Cells were cultured for 16 hours in a humidified incubator at 37 °C and 5 % CO2.
(§6) T-cells were stained for surface antigens (anti-CD4 and anti-CD8) and cell activation markers (anti-CD25 and anti-CD69). Additionally, a fixable viability dye was used to stain viable cells. Staining was performed for 15 minutes and cells analyzed using a Fortessa flow cytometer and FlowJo Software. EC50s were calculated using GraphPad Prism® and a variable slope model (agonist vs. response - variable slope).

CD8+ T-cells = experiment: as above; assay type: cell-based, human; conditions: T-cell; purified human CD4+ and CD8+ T-cells, 1 µg/ml anti-CD3, 1 µg/ml anti-CD28, 16 hours, surface FACS; read-out: EC50 CD8+
Method: as §1, §2, §3, §4, §5, §6

Row | Compound | EC50 (CD4+ T-cells) [nM] | EC50 (CD8+ T-cells) [nM]
1 | Cc1ccc(COc2ccc(-c3nc4c(c(=O)[nH]c(=O)n4CC(C)CO)n3C)cc2F)cc1 (stereo not shown) [Compound 97, 8-(3-fluoro-4-((4-methylbenzyl)oxy)phenyl)-3-(3-hydroxy-2-methylpropyl)-7-methyl-3,7-dihydro-1H-purine-2,6-dione] | 100 to 500 | 100 to 500
2 | COc1cc(-c2nc3c(c(=O)[nH]c(=O)n3CC(C)O)n2C)ccc1OCc1ccc(F)c(Cl)c1 (stereo not shown) [Compound 99, 8-(4-((3-chloro-4-fluorobenzyl)oxy)-3-methoxyphenyl)-3-(2-hydroxypropyl)-7-methyl-3,7-dihydro-1H-purine-2,6-dione] | 100 to 500 | 100 to 500
3 | CC(CO)Cn1c(=O)[nH]c(=O)c2c1nc(-c1ccc(Oc3ccc(OC(F)(F)F)cc3)cc1)n2C (stereo not shown) [Compound 100, 3-(3-hydroxy-2-methylpropyl)-7-methyl-8-(4-(4-(trifluoromethoxy)phenoxy)phenyl)-3,7-dihydro-1H-purine-2,6-dione] | 100 to 500 | 100 to 500
4 | COc1cc(-c2nc3c(c(=O)[nH]c(=O)n3CC(C)O)n2C)ccc1OCc1cccc2ncccc12 (stereo not shown) [Compound 113, 3-(2-hydroxypropyl)-8-(3-methoxy-4-(quinolin-5-ylmethoxy)phenyl)-7-methyl-3,7-dihydro-1H-purine-2,6-dione] | 500 to 1000 | 1000 to 5000
5 | Cc1ccc(COc2ccc(-c3nc4c(c(=O)[nH]c(=O)n4CC(C)O)n3C)cc2F)cc1 (stereo not shown) [Compound 115, 8-(3-fluoro-4-((4-methylbenzyl)oxy)phenyl)-3-(2-hydroxypropyl)-7-methyl-3,7-dihydro-1H-purine-2,6-dione] | 500 to 1000 | 500 to 1000
6 | Cn1c(-c2ccc(OCc3ccccc3)c(OC(F)(F)F)c2)nc2c1c(=O)[nH]c(=O)n2CC(O)CF (stereo not shown) [Compound 117, 8-(4-(benzyloxy)-3-(trifluoromethoxy)phenyl)-3-(3-fluoro-2-hydroxypropyl)-7-methyl-3,7-dihydro-1H-purine-2,6-dione] | < 100 | < 100
7 | CC(O)Cn1c(=O)[nH]c(=O)c2c1nc(-c1ccc(OCc3ccccc3)c(OC(F)(F)F)c1)n2C (stereo not shown) [Compound 120, 8-(4-(benzyloxy)-3-(trifluoromethoxy)phenyl)-3-(2-hydroxypropyl)-7-methyl-3,7-dihydro-1H-purine-2,6-dione] | 100 to 500 | 100 to 500
8 | Cc1ccc(COc2ccc(-c3nc4c(c(=O)[nH]c(=O)n4CC(C)O)n3C)cc2OC(F)(F)F)cc1 (stereo not shown) [Compound 122, 3-(2-hydroxypropyl)-7-methyl-8-(4-((4-methylbenzyl)oxy)-3-(trifluoromethoxy)phenyl)-3,7-dihydro-1H-purine-2,6-dione] | < 100 | < 100
9 | Cc1cc(-c2nc3c(c(=O)[nH]c(=O)n3CC(C)O)n2C)ccc1OCc1ccccc1 (stereo not shown) [Compound 124, 8-(4-(benzyloxy)-3-methylphenyl)-3-(2-hydroxypropyl)-7-methyl-3,7-dihydro-1H-purine-2,6-dione] | 100 to 500 | 100 to 500
10 | COc1cc(-c2nc3c(c(=O)[nH]c(=O)n3CC(C)O)n2C)ccc1OCc1ccc(C)cc1 (stereo not shown) [Compound 125, 3-(2-hydroxypropyl)-8-(3-methoxy-4-((4-methylbenzyl)oxy)phenyl)-7-methyl-3,7-dihydro-1H-purine-2,6-dione] | 100 to 500 | 100 to 500
11 | COc1ccc(COc2ccc(-c3nc4c(c(=O)[nH]c(=O)n4CC(C)O)n3C)cc2OC)cc1F (stereo not shown) [Compound 126, 8-(4-((3-fluoro-4-methoxybenzyl)oxy)-3-methoxyphenyl)-3-(2-hydroxypropyl)-7-methyl-3,7-dihydro-1H-purine-2,6-dione] | 500 to 1000 | 100 to 500
12 | COc1cc(COc2ccc(-c3nc4c(c(=O)[nH]c(=O)n4CC(C)O)n3C)cc2OC)ccc1F (stereo not shown) [Compound 127, 8-(4-((4-fluoro-3-methoxybenzyl)oxy)-3-methoxyphenyl)-3-(2-hydroxypropyl)-7-methyl-3,7-dihydro-1H-purine-2,6-dione] | 500 to 1000 | 500 to 1000
13 | COc1ccc(COc2ccc(-c3nc4c(c(=O)[nH]c(=O)n4CC(C)O)n3C)cc2OC)cc1 (stereo not shown) [Compound 128, 3-(2-hydroxypropyl)-8-(3-methoxy-4-((4-methoxybenzyl)oxy)phenyl)-7-methyl-3,7-dihydro-1H-purine-2,6-dione] | 1000 to 5000 | 1000 to 5000
14 | CC(O)Cn1c(=O)[nH]c(=O)c2c1nc(-c1ccc(Oc3ccc(C(F)(F)F)cc3)cc1)n2C (stereo not shown) [Compound 136, 3-(2-hydroxypropyl)-7-methyl-8-(4-(4-(trifluoromethyl)phenoxy)phenyl)-3,7-dihydro-1H-purine-2,6-dione] | 1000 to 5000 | 1000 to 5000
15 | CC(O)Cn1c(=O)[nH]c(=O)c2c1nc(-c1ccc(Oc3ccc(Cl)cc3)cc1)n2C (stereo not shown) [Compound 138, 8-(4-(4-chlorophenoxy)phenyl)-3-(2-hydroxypropyl)-7-methyl-3,7-dihydro-1H-purine-2,6-dione] | 1000 to 5000 | 1000 to 5000
16 | CC(O)Cn1c(=O)[nH]c(=O)c2c1nc(-c1ccc(Oc3ccccc3)c(Cl)c1)n2C (stereo not shown) [Compound 141, 8-(3-chloro-4-phenoxyphenyl)-3-(2-hydroxypropyl)-7-methyl-3,7-dihydro-1H-purine-2,6-dione] | 1000 to 5000 | 1000 to 5000

Next, values leading:

Row | EC50 (CD4+ T-cells) [nM] | EC50 (CD8+ T-cells) [nM] | Compound
17 | 100 to 500 | 100 to 500 | Cc1ccc(COc2ccc(-c3nc4c(c(=O)[nH]c(=O)n4CC(O)CF)n3C)cc2F)cc1 (stereo not shown) [Compound 96, 3-(3-fluoro-2-hydroxypropyl)-8-(3-fluoro-4-((4-methylbenzyl)oxy)phenyl)-7-methyl-3,7-dihydro-1H-purine-2,6-dione]
18 | 100 to 500 | 100 to 500 | CC(O)Cn1c(=O)[nH]c(=O)c2c1nc(-c1ccc(OCc3ccccc3)c(C(F)(F)F)c1)n2C (stereo not shown) [Compound 98, 8-(4-(benzyloxy)-3-(trifluoromethyl)phenyl)-3-(2-hydroxypropyl)-7-methyl-3,7-dihydro-1H-purine-2,6-dione]
19 | 100 to 500 | 100 to 500 | COc1cc(-c2nc3c(c(=O)[nH]c(=O)n3CC(C)O)n2C)ccc1OCc1cccc2ccncc12 (stereo not shown) [Compound 101, 3-(2-hydroxypropyl)-8-(4-(isoquinolin-8-ylmethoxy)-3-methoxyphenyl)-7-methyl-3,7-dihydro-1H-purine-2,6-dione]
20 | < 100 | 100 to 500 | Cc1ccc(COc2ccc(-c3nc4c(c(=O)[nH]c(=O)n4CC(O)C(F)(F)F)n3C)cc2F)cc1 (stereo not shown) [Compound 102, 8-(3-fluoro-4-((4-methylbenzyl)oxy)phenyl)-7-methyl-3-(3,3,3-trifluoro-2-hydroxypropyl)-3,7-dihydro-1H-purine-2,6-dione]
21 | 1000 to 5000 | 1000 to 5000 | COc1ccc(COc2ccc(-c3nc4c(c(=O)[nH]c(=O)n4CC(C)O)n3C)cc2F)cc1 (stereo not shown) [Compound 114, 8-(3-fluoro-4-((4-methoxybenzyl)oxy)phenyl)-3-(2-hydroxypropyl)-7-methyl-3,7-dihydro-1H-purine-2,6-dione]
22 | 500 to 1000 | 500 to 1000 | Cn1c(-c2ccc(OCc3ccccc3)c(OC(F)(F)F)c2)nc2c1c(=O)[nH]c(=O)n2CC(O)CO (stereo not shown) [Compound 116, 8-(4-(benzyloxy)-3-(trifluoromethoxy)phenyl)-3-(2,3-dihydroxypropyl)-7-methyl-3,7-dihydro-1H-purine-2,6-dione]
23 | < 100 | 100 to 500 | CC(CO)Cn1c(=O)[nH]c(=O)c2c1nc(-c1ccc(OCc3ccccc3)c(OC(F)(F)F)c1)n2C (stereo not shown) [Compound 118, 8-(4-(benzyloxy)-3-(trifluoromethoxy)phenyl)-3-(3-hydroxy-2-methylpropyl)-7-methyl-3,7-dihydro-1H-purine-2,6-dione]
24 | < 100 | < 100 | Cn1c(-c2ccc(OCc3ccccc3)c(OC(F)(F)F)c2)nc2c1c(=O)[nH]c(=O)n2CC(O)C(F)(F)F (stereo not shown) [Compound 119, 8-(4-(benzyloxy)-3-(trifluoromethoxy)phenyl)-7-methyl-3-(3,3,3-trifluoro-2-hydroxypropyl)-3,7-dihydro-1H-purine-2,6-dione]
25 | < 100 | < 100 | COc1cc(-c2nc3c(c(=O)[nH]c(=O)n3CC(O)C(F)(F)F)n2C)ccc1OCc1ccc(C)cc1 (stereo not shown) [Compound 121, 8-(3-methoxy-4-((4-methylbenzyl)oxy)phenyl)-7-methyl-3-(3,3,3-trifluoro-2-hydroxypropyl)-3,7-dihydro-1H-purine-2,6-dione]
26 | < 100 | < 100 | Cc1ccc(COc2ccc(-c3nc4c(c(=O)[nH]c(=O)n4CC(C)O)n3C)cc2C(F)(F)F)cc1 (stereo not shown) [Compound 123, 3-(2-hydroxypropyl)-7-methyl-8-(4-((4-methylbenzyl)oxy)-3-(trifluoromethyl)phenyl)-3,7-dihydro-1H-purine-2,6-dione]
